Laboratory results taken from PubChem BioAssay AID2060626 (Molecular Pharmacology Branch, DTP, NCI, 2025).

tested on: 168753-222-R-J1-PDC complex spheroid viability; test: Anticancer human tumor 168753-222-R-J1-PDC patient-derived bladder carcinoma cell line growth inhibition [CLK]; conditions: second compound 0.316 µM; first compound 1 µM; hits give low values
Description: A high-throughput screen of multi-cell type tumor spheroids was designed to identify active combinations of […] and targeted small molecules. Complex spheroids include a stromal component modeled by human endothelial cells (HUVEC) and fibroblasts modeled by human mesenchymal stem cells (MSCs). The concentration ranges selected for each drug and investigational agent were based upon clinically achievable concentrations if the clinical Cmax of the agent was known.
Compounds. The drugs and investigational agents: cirtuvivint (SM08502; NSC835563), CC-671 (NSC850746), vemurafenib (NSC761431), tapotoclax (NSC804041), sotorasib (NSC818433), adagrasib (NSC831453), MRTX-1133 (NSC836407), BAY2416964 (NSC825713), copanlisib (NSC816437), inavolisib (NSC800729), abemaciclib (NSC768073), osimertinib (NSC779217), entinostat (NSC756642), eltanexor (KPT-8602, NSC794443), venetoclax (NSC766270), ceralasertib (NSC777638), bortezomib (NSC756655), olaparib (NSC753686), talazoparib (NSC767125), alisertib (NSC759677), peposertib (NSC802822), gemcitabine (NSC613327), 5-fluorouracil (NSC19893), SN-38 (NSC673596), oxaliplatin (NSC266046), paclitaxel (NSC125973), and doxorubicin (NSC123127), were obtained from the National Cancer Institute (NCI) Developmental Therapeutics Program Chemical Repository. The FDA-approved anticancer drug set is available from the Developmental Therapeutics Program at https://dtp.cancer.gov/organization/dscb/obtaining/available plates.htm. […] The stock solutions were prepared in dimethyl sulfoxide (DMSO, Sigma-Aldrich, St. Louis, MO, cat. D2650), except for the platinum complexes which were prepared in saline (Quality Biological, Gaithersburg, MD, cat. 114-055-101), at 800-fold the tested concentration and stored at -70 degrees C prior to their use. All drugs and investigational agents were tested over a range starting from a high concentration at or near the clinical Cmax and decreasing in half-log increments. If the clinical Cmax for an agent had not been determined, the highest concentration tested was 10 microM.
Cell Culture. All cells were maintained in an incubator at 37 degrees C and 5% CO2 with 95% humidity. The PDC lines were cultured according to standard operating procedures established by the NCI PDMR. Briefly, all PDCs were thawed and cultured in Matrigel-coated flasks prepared with a working solution of 1X Ham's F-12 nutrient mix, without supplementation (Invitrogen, Waltham, MA, cat. 11765054), 100 U/mL penicillin-streptomycin (Invitrogen, cat. 15140122), and 2.5% Matrigel (Corning Inc., Corning, NY, cat. 354248) for the first three passages. The 947758-054-R-J2-PDC line was cultured in 6B/Colon 1A media, which includes advanced DMEM/F-12 (Thermo Fisher Scientific, cat. 12634028), 10 mM HEPES (Thermo Fisher Scientific, cat. 15630080), 1X GlutaMAX supplement (Thermo Fisher Scientific, cat. 35050061), 0.1 mg/mL primocin (InvivoGen, cat. ant-pm-2), 10% defined fetal bovine serum, heat inactivated (HyClone Laboratories Inc., cat. SH30070.03HI), 1.25 mM N-Acetyl-L-cysteine (Sigma-Aldrich, cat. A9165), 10 mM nicotinamide (Sigma-Aldrich, cat. N0636), 1X B-27 supplement (Thermo Fisher Scientific, cat. 17504044), 1X N-2 supplement (Thermo Fisher Scientific, cat. 17502048), and 10 microM Y-27632 dihydrochloride (Tocris Bioscience, cat. 1254). The 876862-298-R-J1-PDC was cultured in 6E media, which includes all 6B/Colon 1A media components plus 50% L-WRN conditioned media (ATCC, cat. CRL-3276), 50 ng/mL recombinant human EGF recombinant protein (hEGF; Thermo Fisher Scientific, cat. PHG0311), 10 ng/mL recombinant human fibroblast growth factor 10 (hGFG-10; PeproTech, cat. 100-26), 1 ng/mL recombinant human fibroblast growth factor 2 (hFGF-2; PeproTech, cat. 100-18B), and 1 µM prostaglandin E2 (PGE2; Tocris, cat. 2296). The 227483-062-R1-J1-PDC line was cultured in Panc media, containing all 6E components except hFGF-2, with the addition of 500 nM SB-431542 (Selleckchem, cat. S1067) and 10 nM gastrin (Tocris, cat. 3006). […]
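Note: luminescence signal used as surrogate for viable cell amount; viability measured after seven days of drug exposure; 100% = DMSO vehicle control wells.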

SMILES | viability, T/C
C#Cc1c(F)ccc2cc(O)cc(-c3ncc4c(N5CC6CCC(C5)N6)nc(OCC56CCCN5CC(F)C6)nc4c3F)c12 (stereo unspecified) + CN1CCN(c2cc(C(=O)Nc3cc4cc(-c5cnn(C)c5)ccc4cn3)ccn2)CC1 | 12%
C=C(F)C(=O)N1CCN(c2nc(OCC3CCCN3C)nc3c2CCN(c2cccc4cccc(Cl)c24)C3)CC1CC#N (stereo unspecified) + CN1CCN(c2cc(C(=O)Nc3cc4cc(-c5cnn(C)c5)ccc4cn3)ccn2)CC1 | 8.4%
CC(CO)NC(=O)c1cc(-c2ccc(Cl)cc2)nn(-c2cnn(C)c2)c1=O (stereo unspecified) + CN1CCN(c2cc(C(=O)Nc3cc4cc(-c5cnn(C)c5)ccc4cn3)ccn2)CC1 | 13.8%

same assay, conditions: second compound 0.316 µM; first compound 3.16 µM; hits give low values

SMILES | viability, T/C
C#Cc1c(F)ccc2cc(O)cc(-c3ncc4c(N5CC6CCC(C5)N6)nc(OCC56CCCN5CC(F)C6)nc4c3F)c12 (stereo unspecified) + CN1CCN(c2cc(C(=O)Nc3cc4cc(-c5cnn(C)c5)ccc4cn3)ccn2)CC1 | 12.1%
C=C(F)C(=O)N1CCN(c2nc(OCC3CCCN3C)nc3c2CCN(c2cccc4cccc(Cl)c24)C3)CC1CC#N (stereo unspecified) + CN1CCN(c2cc(C(=O)Nc3cc4cc(-c5cnn(C)c5)ccc4cn3)ccn2)CC1 | 4.48%
CC(CO)NC(=O)c1cc(-c2ccc(Cl)cc2)nn(-c2cnn(C)c2)c1=O (stereo unspecified) + CN1CCN(c2cc(C(=O)Nc3cc4cc(-c5cnn(C)c5)ccc4cn3)ccn2)CC1 | 19.1%

same assay, conditions: second compound 0.316 µM; first compound 10 µM; hits give low values

SMILES | viability, T/C
C#Cc1c(F)ccc2cc(O)cc(-c3ncc4c(N5CC6CCC(C5)N6)nc(OCC56CCCN5CC(F)C6)nc4c3F)c12 (stereo unspecified) + CN1CCN(c2cc(C(=O)Nc3cc4cc(-c5cnn(C)c5)ccc4cn3)ccn2)CC1 | 7.39%
C=C(F)C(=O)N1CCN(c2nc(OCC3CCCN3C)nc3c2CCN(c2cccc4cccc(Cl)c24)C3)CC1CC#N (stereo unspecified) + CN1CCN(c2cc(C(=O)Nc3cc4cc(-c5cnn(C)c5)ccc4cn3)ccn2)CC1 | 1.3%
CC(CO)NC(=O)c1cc(-c2ccc(Cl)cc2)nn(-c2cnn(C)c2)c1=O (stereo unspecified) + CN1CCN(c2cc(C(=O)Nc3cc4cc(-c5cnn(C)c5)ccc4cn3)ccn2)CC1 | 13.8%

same assay, conditions: second compound 1 µM; first compound 0.0316 µM; hits give low values

SMILES | viability, T/C
C#Cc1c(F)ccc2cc(O)cc(-c3ncc4c(N5CC6CCC(C5)N6)nc(OCC56CCCN5CC(F)C6)nc4c3F)c12 (stereo unspecified) + CN1CCN(c2cc(C(=O)Nc3cc4cc(-c5cnn(C)c5)ccc4cn3)ccn2)CC1 | 0.54%
C=C(F)C(=O)N1CCN(c2nc(OCC3CCCN3C)nc3c2CCN(c2cccc4cccc(Cl)c24)C3)CC1CC#N (stereo unspecified) + CN1CCN(c2cc(C(=O)Nc3cc4cc(-c5cnn(C)c5)ccc4cn3)ccn2)CC1 | 0.47%
CC(CO)NC(=O)c1cc(-c2ccc(Cl)cc2)nn(-c2cnn(C)c2)c1=O (stereo unspecified) + CN1CCN(c2cc(C(=O)Nc3cc4cc(-c5cnn(C)c5)ccc4cn3)ccn2)CC1 | 0.44%

same assay, conditions: second compound 1 µM; first compound 0.1 µM; hits give low values

SMILES | viability, T/C
C#Cc1c(F)ccc2cc(O)cc(-c3ncc4c(N5CC6CCC(C5)N6)nc(OCC56CCCN5CC(F)C6)nc4c3F)c12 (stereo unspecified) + CN1CCN(c2cc(C(=O)Nc3cc4cc(-c5cnn(C)c5)ccc4cn3)ccn2)CC1 | 0.65%
C=C(F)C(=O)N1CCN(c2nc(OCC3CCCN3C)nc3c2CCN(c2cccc4cccc(Cl)c24)C3)CC1CC#N (stereo unspecified) + CN1CCN(c2cc(C(=O)Nc3cc4cc(-c5cnn(C)c5)ccc4cn3)ccn2)CC1 | 0.78%
CC(CO)NC(=O)c1cc(-c2ccc(Cl)cc2)nn(-c2cnn(C)c2)c1=O (stereo unspecified) + CN1CCN(c2cc(C(=O)Nc3cc4cc(-c5cnn(C)c5)ccc4cn3)ccn2)CC1 | 0.4%

same assay, conditions: second compound 1 µM; first compound 0.316 µM; hits give low values

SMILES | viability, T/C
C#Cc1c(F)ccc2cc(O)cc(-c3ncc4c(N5CC6CCC(C5)N6)nc(OCC56CCCN5CC(F)C6)nc4c3F)c12 (stereo unspecified) + CN1CCN(c2cc(C(=O)Nc3cc4cc(-c5cnn(C)c5)ccc4cn3)ccn2)CC1 | 1.92%
C=C(F)C(=O)N1CCN(c2nc(OCC3CCCN3C)nc3c2CCN(c2cccc4cccc(Cl)c24)C3)CC1CC#N (stereo unspecified) + CN1CCN(c2cc(C(=O)Nc3cc4cc(-c5cnn(C)c5)ccc4cn3)ccn2)CC1 | 0.38%
CC(CO)NC(=O)c1cc(-c2ccc(Cl)cc2)nn(-c2cnn(C)c2)c1=O (stereo unspecified) + CN1CCN(c2cc(C(=O)Nc3cc4cc(-c5cnn(C)c5)ccc4cn3)ccn2)CC1 | 0.31%

same assay, conditions: second compound 1 µM; first compound 1 µM; hits give low values

SMILES | viability, T/C
C#Cc1c(F)ccc2cc(O)cc(-c3ncc4c(N5CC6CCC(C5)N6)nc(OCC56CCCN5CC(F)C6)nc4c3F)c12 (stereo unspecified) + CN1CCN(c2cc(C(=O)Nc3cc4cc(-c5cnn(C)c5)ccc4cn3)ccn2)CC1 | 0.88%
C=C(F)C(=O)N1CCN(c2nc(OCC3CCCN3C)nc3c2CCN(c2cccc4cccc(Cl)c24)C3)CC1CC#N (stereo unspecified) + CN1CCN(c2cc(C(=O)Nc3cc4cc(-c5cnn(C)c5)ccc4cn3)ccn2)CC1 | 0.16%
CC(CO)NC(=O)c1cc(-c2ccc(Cl)cc2)nn(-c2cnn(C)c2)c1=O (stereo unspecified) + CN1CCN(c2cc(C(=O)Nc3cc4cc(-c5cnn(C)c5)ccc4cn3)ccn2)CC1 | 0.55%

same assay, conditions: second compound 1 µM; first compound 3.16 µM; hits give low values

SMILES | viability, T/C
C#Cc1c(F)ccc2cc(O)cc(-c3ncc4c(N5CC6CCC(C5)N6)nc(OCC56CCCN5CC(F)C6)nc4c3F)c12 (stereo unspecified) + CN1CCN(c2cc(C(=O)Nc3cc4cc(-c5cnn(C)c5)ccc4cn3)ccn2)CC1 | 0.75%
C=C(F)C(=O)N1CCN(c2nc(OCC3CCCN3C)nc3c2CCN(c2cccc4cccc(Cl)c24)C3)CC1CC#N (stereo unspecified) + CN1CCN(c2cc(C(=O)Nc3cc4cc(-c5cnn(C)c5)ccc4cn3)ccn2)CC1 | 0.12%
CC(CO)NC(=O)c1cc(-c2ccc(Cl)cc2)nn(-c2cnn(C)c2)c1=O (stereo unspecified) + CN1CCN(c2cc(C(=O)Nc3cc4cc(-c5cnn(C)c5)ccc4cn3)ccn2)CC1 | 0.46%

same assay, conditions: second compound 1 µM; first compound 10 µM; hits give low values

SMILES | viability, T/C
C#Cc1c(F)ccc2cc(O)cc(-c3ncc4c(N5CC6CCC(C5)N6)nc(OCC56CCCN5CC(F)C6)nc4c3F)c12 (stereo unspecified) + CN1CCN(c2cc(C(=O)Nc3cc4cc(-c5cnn(C)c5)ccc4cn3)ccn2)CC1 | 0.34%
C=C(F)C(=O)N1CCN(c2nc(OCC3CCCN3C)nc3c2CCN(c2cccc4cccc(Cl)c24)C3)CC1CC#N (stereo unspecified) + CN1CCN(c2cc(C(=O)Nc3cc4cc(-c5cnn(C)c5)ccc4cn3)ccn2)CC1 | 1.07%
CC(CO)NC(=O)c1cc(-c2ccc(Cl)cc2)nn(-c2cnn(C)c2)c1=O (stereo unspecified) + CN1CCN(c2cc(C(=O)Nc3cc4cc(-c5cnn(C)c5)ccc4cn3)ccn2)CC1 | 3.13%

same assay, conditions: second compound 3.16 µM; first compound 0.0316 µM; hits give low values

SMILES | viability, T/C
C#Cc1c(F)ccc2cc(O)cc(-c3ncc4c(N5CC6CCC(C5)N6)nc(OCC56CCCN5CC(F)C6)nc4c3F)c12 (stereo unspecified) + CN1CCN(c2cc(C(=O)Nc3cc4cc(-c5cnn(C)c5)ccc4cn3)ccn2)CC1 | 2.41%
C=C(F)C(=O)N1CCN(c2nc(OCC3CCCN3C)nc3c2CCN(c2cccc4cccc(Cl)c24)C3)CC1CC#N (stereo unspecified) + CN1CCN(c2cc(C(=O)Nc3cc4cc(-c5cnn(C)c5)ccc4cn3)ccn2)CC1 | 0.26%
CC(CO)NC(=O)c1cc(-c2ccc(Cl)cc2)nn(-c2cnn(C)c2)c1=O (stereo unspecified) + CN1CCN(c2cc(C(=O)Nc3cc4cc(-c5cnn(C)c5)ccc4cn3)ccn2)CC1 | 0.2%

same assay, conditions: second compound 3.16 µM; first compound 0.1 µM; hits give low values

SMILES | viability, T/C
C#Cc1c(F)ccc2cc(O)cc(-c3ncc4c(N5CC6CCC(C5)N6)nc(OCC56CCCN5CC(F)C6)nc4c3F)c12 (stereo unspecified) + CN1CCN(c2cc(C(=O)Nc3cc4cc(-c5cnn(C)c5)ccc4cn3)ccn2)CC1 | 0.59%
